Assay results taken from patent US12643912B2, “Macrocyclic compounds, a process for their preparation and pharmaceutical compositions containing them” (LES LABORATOIRES SERVIER, priority 2020, dated 2026).

What follows are molecules tested on Nrf2 (Keap1-NRF2 nuclear translocation) (assay: U2OS translocation assay (PathHunter U2OS Keap1-NRF2 Nuclear Translocation Cell Line)). Conditions: Homo sapiens, U2OS, 3 h, read-out: CELLULAR U2OS EC50 (nM), U2OS Keap1-NRF2 nuclear translocation cells, 3 h incubation, luminescence, normalized between 1% DMSO and 10 μM andrographolide.
Format: cell-based
Method: EXAMPLE 84: U2OS—TRANSLOCATION ASSAY
U2OS cell have been stably transduced using MMLV-derived retroviral vector, to overexpress Nrf2-Enzyme Donor fusion protein, and Acceptor Enzyme in the nucleus (PathHunter® U2OS Keap1-NRF2 Nuclear Translocation Cell Line, Ref.93-0821C3, DiscoverX).
PathHunter U2OS cells were grown in Minimum Essential Medium (MEM) (Ref.30-2003, ATCC), 10% FBS (Ref.P30-193306, PanBiotech), 500 μg/ml Geneticine, 250 μg/ml hygromycine, 0.25 μg/ml puromycine (10131-027, 10687-010 and Ref.A1113802 respectively, Life Technologies).
The night before experiment, cells were harvested using Tryple Xpress (Ref.126905, Bibco) for 5 min at 37° C., resuspended in Opti-MEM™ (Ref.31985-047, Gibco), 1% FBS (Ref.P30-193306, PanBiotech) and then plated into 384 wells plates (Ref.6007680, Perkin Elmer) at the density of 7 500 cells/well in 20 μl. Cell are stored over night at 37° C., 5% CO2 until used. Compounds in 100% DMSO (0.315 μl/well) were resuspended in 20 μl MEM, 1% FBS, 3.4% DMSO. Compounds and andrographolide (10 μM final concentration; Ref.365645-500MG, Aldrich)) as positive control, were dispensed on cell, 5 μl /well, and then incubated for 3 h at 37° C. and 5% CO2. After incubation, Path hunter reagents were dispensed on cells (12 μl /well, Ref.93-0001, DiscoverX) and incubated for 60 min at room temperature in the dark.
Then, luminescence signal was measured using multimodal reader (Pherastar, BMG Labtech). Data were normalized between 1% DMSO (basal signal) and 10 μM andrographolide (positive signal) and analyzed using Activity Base software.

Compound	EC50
COc1ccc2cc1[C@H](C)N1Cc3cc(ccc3OS1(=O)=O)OCCCCCn1nnc3c(C)c(ccc31)[C@@H]2CC(=O)O [Example 31c, [(2S,8R)-4-methoxy-2,32-dimethyl-28,28-dioxo-22,27-dioxa-28λ^6-thia-1,14,15,16-tetraazahexacyclo[21.5.3.1^3,70.1^9,130.0^12,160.0^26,30]tritriaconta-3(33),4,6,9(32),10,12,14,23,25,30-decaen-8-yl]acetic acid]	> 3160 nM
COc1ccc2cc1CN1Cc3cc(ccc3OS1(=O)=O)OCCN(C)CCCCn1nnc3c(C)c(ccc31)C2CC(=O)O (stereo not shown) [Example 47]	288 nM
Cc1ccc2cc1CN1Cc3cc(ccc3OS1(=O)=O)OCCCCn1nnc3c(C)c(cc(Br)c31)[C@@H]2CC(=O)O [Example 48, [(8R)-11-Bromo-4,31-dimethyl-27,27-dioxo-21,26-dioxa-27λ^6-thia-1,14,15,16-tetraazahexacyclo[20.5.3.1^3,70.1^9,130.0^12,160.0^25,29]dotriaconta-3(32),4,6,9(31),10,12,14,22,24,29-decaen-8-yl]acetic acid]	198 nM
Cc1ccc2cc1CN1Cc3cc(ccc3OS1(=O)=O)OCCCCn1nnc3c(C)c(ccc31)[C@H]2CC(=O)Nc1cncnc1 [Example 79b, 2-[(8S)-4,31-dimethyl-27,27-dioxo-21,26-dioxa-27λ^6-thia-1,14,15,16-tetraazahexacyclo[20.5.3.1^3,70.1^9,130.0^12,160.0^25,29]dotriaconta-3(32),4,6,9(31),10,12,14,22,24,29-decaen-8-yl]-N-(pyrimidin-5-yl)acetamide]	296 nM
Cc1ccc2cc1CN1Cc3cc(ccc3OS1(=O)=O)OCCn1nnc3c(C)c(ccc31)C2CC(=O)O (stereo not shown) [Example 77a, [4,29-Dimethyl-25,25-dioxo-19,24-dioxa-25λ^6-thia-1,14,15,16-tetraazahexacyclo[18.5.3.1^3,70.1^9,130.0^12,160.0^23,27]triaconta-3(30),4,6,9(29),10,12,14,20,22,27-decaen-8-yl]acetic acid]	1750 nM
COc1ccc2cc1[C@H](C)N1Cc3cc(ccc3OS1(=O)=O)OCCCCn1nnc3c(C)c(ccc31)[C@H]2CC(=O)O [Example 28d, [(2S,8S)-4-methoxy-2,31-dimethyl-27,27-dioxo-21,26-dioxa-27λ^6-thia-1,14,15,16-tetraazahexacyclo[20.5.3.1^3,70.1^9,130.0^12,160.0^25,29]dotriaconta-3(32),4,6,9(31),10,12,14,22,24,29-decaen-8-yl]acetic acid]	879 nM
Cc1ccc2cc1[C@@H](C)N1Cc3cc(cc(C)c3OS1(=O)=O)OCCCCn1nnc3c(C)c(ccc31)[C@@H]2CC(=O)O [Example 29a, [(2R,8R)-2,4,24,31-Tetramethyl-27,27-dioxo-21,26-dioxa-27λ^6-thia-1,14,15,16-tetraazahexacyclo[20.5.3.1^3,70.1^9,130.0^12,160.0^25,29]dotriaconta-3(32),4,6,9(31),10,12,14,22,24,29-decaen-8-yl]acetic acid]	440 nM
COc1ccc2cc1[C@H](C)N1Cc3cc(ccc3OS1(=O)=O)OCCCCn1nnc3c(C)c(ccc31)[C@@H]2CC(=O)O [Example 28c, [(2S,8R)-4-Methoxy-2,31-dimethyl-27,27-dioxo-21,26-dioxa-27λ^6-thia-1,14,15,16-tetraazahexacyclo[20.5.3.1^3,70.1^9,130.0^12,160.0^25,29]dotriaconta-3(32),4,6,9(31),10,12,14,22,24,29-decaen-8-yl]acetic acid]	> 3160 nM
COc1ccc2cc1[C@@H](C)N1Cc3cc(ccc3OS1(=O)=O)OCCOCCn1nnc3c(C)c(ccc31)[C@@H]2CC(=O)O [Example 41b]	> 3160 nM
Cc1ccc2cc1CN1Cc3cc(ccc3OS1(=O)=O)OCCCCn1nnc3c(C)c(ccc31)[C@@H]2CC(=O)Nc1cccnc1 [Example 80b, 2-[(8R)-4,31-dimethyl-27,27-dioxo-21,26-dioxa-27λ^6-thia-1,14,15,16-tetraazahexacyclo[20.5.3.1^3,70.1^9,130.0^12,160.0^25,29]dotriaconta-3(32),4,6,9(31),10,12,14,22,24,29-decaen-8-yl]-N-(pyridin-3-yl)acetamide]	2700 nM
COc1ccc2cc1[C@@H](C)N1Cc3cc(ccc3OS1(=O)=O)OCCCCCn1nnc3c(C)c(ccc31)[C@@H]2CC(=O)O [Example 31d, [(2R,8R)-4-methoxy-2,32-dimethyl-28,28-dioxo-22,27-dioxa-28λ^6-thia-1,14,15,16-tetraazahexacyclo[21.5.3.1^3,70.1^9,130.0^12,160.0^26,30]tritriaconta-3(33),4,6,9(32),10,12,14,23,25,30-decaen-8-yl]acetic acid]	326 nM
Cc1ccc2cc1[C@@H](C)N1Cc3cc(ccc3OS1(=O)=O)OC[C@@H](O)CCn1nnc3c(C)c(ccc31)[C@@H]2CC(=O)O [Example 46b, [(2R,8RS,19S)-19-hydroxy-2,4,31-trimethyl-27,27-dioxo-21,26-dioxa-27λ^6-thia-1,14,15,16-tetraazahexacyclo[20.5.3.1^3,70.1^9,130.0^12,160.0^25,29]dotriaconta-3(32),4,6,9(31),10,12,14,22,24,29-decaen-8-yl]acetic acid]	792 nM
COc1ccc2cc1CN1Cc3cc(ccc3OS1(=O)=O)OCCOCCn1nnc3c(C)c(ccc31)C2CC(=O)O (stereo not shown) [Example 59b, [4-Methoxy-32-methyl-28,28-dioxo-19,22,27-trioxa-28λ^6-thia-1,14,15,16-tetraazahexacyclo[21.5.3.1^3,70.1^9,130.0^12,160.0^26,30]tritriaconta-3(33),4,6,9(32),10,12,14,23,25,30-decaen-8-yl]acetic acid]	1760 nM

Same assay, conditions: read-out: CELLULAR U2OS EC50; U2OS Keap1-NRF2 nuclear translocation cells, 3 h incubation, luminescence, normalized between 1% DMSO and 10 μM andrographolide

Compound	EC50
Cc1ccc2cc1CN1Cc3cc(ccc3OS1(=O)=O)OCCCCn1nnc3c(C)c(ccc31)C2C(C)(C)C(=O)Nc1cccnc1 (single isomer, unassigned) [Example 82a, 2-[4,31-Dimethyl-27,27-dioxo-21,26-dioxa-27λ^6-thia-1,14,15,16-tetraazahexacyclo[20.5.3.1^3,70.1^9,130.0^12,160.0^25,29]dotriaconta-3(32),4,6,9(31),10,12,14,22,24,29-decaen-8-yl]-2-methyl-N-(pyridin-3-yl)propanamide]	635 nM
Cc1ccc2cc1CN1Cc3cc(ccc3OS1(=O)=O)OCc1ccccc1SCCCn1nnc3c(C)c(ccc31)C2CC(=O)O (single isomer, unassigned) [Example 67b, [4,38-Dimethyl-34,34-dioxo-28,33-dioxa-20,34λ^6-dithia-1,14,15,16-tetraazaheptacyclo[27.5.3.1^3,70.1^9,130.0^12,160.0^21,260.0^32,36]nonatriaconta-3(39),4,6,9(38),10,12,14,21,23,25,29,31,36-tridecaen-8-yl]acetic acid]	> 3160 nM
Cc1ccc2cc1CN1Cc3cc(ccc3OS1(=O)=O)OCCCCn1nnc3c(C)c(ccc31)C2C(C)(C)C(=O)O (single isomer, unassigned) [Example 74b, 2-[4,31-Dimethyl-27,27-dioxo-21,26-dioxa-27λ^6-thia-1,14,15,16-tetraazahexacyclo[20.5.3.1^3,70.1^9,130.0^12,160.0^25,29]dotriaconta-3(32),4,6,9(31),10,12,14,22,24,29-decaen-8-yl]-2-methylpropanoic acid]	756 nM
COc1cc2cc(c1C)CN1Cc3cc(ccc3OS1(=O)=O)OCCCCn1nnc3c(C)c(ccc31)C2CC(=O)O (single isomer, unassigned) [Example 30a, [5-Methoxy-4,31-dimethyl-27,27-dioxo-21,26-dioxa-27λ^6-thia-1,14,15,16-tetraazahexacyclo[20.5.3.1^3,70.1^9,130.0^12,160.0^25,29]dotriaconta-3(32),4,6,9(31),10,12,14,22,24,29-decaen-8-yl]acetic acid]	555 nM
Cc1ccc2cc1CN1Cc3cc(ccc3OS1(=O)=O)OCC1CCN(CC1)CCn1nnc3c(C)c(ccc31)C2CC(=O)O (single isomer, unassigned) [Example 60a, [4,36-Dimethyl-30,30-dioxo-24,29-dioxa-30λ^6-thia-1,14,15,16,19-pentaazaheptacyclo[23.5.3.2^19,220.1^3,70.1^9,130.0^12,160.0^28,32]heptatriaconta-3(37),4,6,9(36),10,12,14,25,27,32-decaen-8-yl]acetic acid]	265 nM
Cc1ccc2cc1CN1Cc3cc(ccc3OS1(=O)=O)OCC1CCN(CC1)CCn1nnc3c(C)c(ccc31)C2CC(=O)O (single isomer, unassigned) [Example 60b, [4,36-Dimethyl-30,30-dioxo-24,29-dioxa-30λ^6-thia-1,14,15,16,19-pentaazaheptacyclo[23.5.3.2^19,220.1^3,70.1^9,130.0^12,160.0^28,32]heptatriaconta-3(37),4,6,9(36),10,12,14,25,27,32-decaen-8-yl]acetic acid]	> 3160 nM
